Structures can show the parent of a compound that is named as a salt. Where two headings read alike, the source gives them in different places. Each block holds one molecule with its values, some of them ahead of it.
What was measured:
[1] = concentration level where the cooling effect can be clearly recognized; cited from earlier work
[2] = biological target: T1, mouse TREK-1 (mTREK-1t) (Mus musculus, UniProt P97438); assay: FLIPR membrane potential assay in HEK-293 cells stably transfected with mTREK-1t; format: cell-based
T1 construct: (mTREK-1t) by Capital Biosciences (Rockville, Md.)
T1 sequence (P97438 with tags, fused parts or gaps limits assumed): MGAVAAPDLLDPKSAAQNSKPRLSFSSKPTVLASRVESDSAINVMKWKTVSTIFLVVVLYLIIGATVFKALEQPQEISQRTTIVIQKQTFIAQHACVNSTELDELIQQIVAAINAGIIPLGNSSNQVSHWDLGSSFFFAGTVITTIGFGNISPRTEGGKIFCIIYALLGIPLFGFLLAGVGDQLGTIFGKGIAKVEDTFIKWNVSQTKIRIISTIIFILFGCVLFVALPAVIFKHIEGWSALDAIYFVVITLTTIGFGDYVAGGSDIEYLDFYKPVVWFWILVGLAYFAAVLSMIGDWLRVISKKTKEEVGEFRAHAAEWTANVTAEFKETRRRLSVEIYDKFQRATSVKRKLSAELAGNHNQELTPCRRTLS

[3] = HEK293, sample concentration 50 μM, relative to 50 mM potassium nitrate, read-out: Fluorescence per Sample concentration (percent activity relative to potassium nitrate)
[4] = HEK293, sample concentration 100 μM, relative to 50 mM potassium nitrate, read-out: Fluorescence per Sample concentration (percent activity relative to potassium nitrate)
[5] = HEK293, sample concentration 200 μM, relative to 50 mM potassium nitrate, read-out: Fluorescence per Sample concentration (percent activity relative to potassium nitrate)
[6] = HEK293, read-out: Activity Level (percentage of activity relative to 100% with 50 mM potassium nitrate)
[7] = HEK293, read-out: Fluorescence per Sample concentration (percent activity relative to potassium nitrate)
[8] = HEK293, Sample Conc. 0.0005%, read-out: Activity Level (percentage of activity relative to 100% with 50 mM potassium nitrate)
[9] = HEK293, Sample Conc. 0.0010%, read-out: Activity Level (percentage of activity relative to 100% with 50 mM potassium nitrate)
[10] = HEK293, Sample Conc. 0.0021%, read-out: Activity Level (percentage of activity relative to 100% with 50 mM potassium nitrate)
[11] = HEK293, Sample Conc. 0.0042%, read-out: Activity Level (percentage of activity relative to 100% with 50 mM potassium nitrate)
[12] = HEK293, Sample Conc. 0.0083%, read-out: Activity Level (percentage of activity relative to 100% with 50 mM potassium nitrate)
[13] = HEK293, Sample Conc. 0.0167%, read-out: Activity Level (percentage of activity relative to 100% with 50 mM potassium nitrate)
[14] = HEK293, Sample Conc. 0.0330%, read-out: Activity Level (percentage of activity relative to 100% with 50 mM potassium nitrate)
[15] = sample concentration 50 μM, relative to 50 mM potassium nitrate
[16] = sample concentration 100 μM, relative to 50 mM potassium nitrate
[17] = sample concentration 200 μM, relative to 50 mM potassium nitrate

Molecule: CC(C)[C@@H]1CC[C@@H](C)C[C@@H]1O [Sample 1-neomenthol, 1-neomenthol]
cooling threshold [1]: about 3,000 ppb

Activity Level (percentage of activity relative to 100% with 50 mM potassium nitrate) ([2]; Sample Conc. 0.0005%): 5.92%
Activity Level (percentage of activity relative to 100% with 50 mM potassium nitrate) ([2]; Sample Conc. 0.0010%): 13.39%
Activity Level (percentage of activity relative to 100% with 50 mM potassium nitrate) ([2]; Sample Conc. 0.0021%): 20.49%
Activity Level (percentage of activity relative to 100% with 50 mM potassium nitrate) ([2]; Sample Conc. 0.0042%): 26.65%
Activity Level (percentage of activity relative to 100% with 50 mM potassium nitrate) ([2]; Sample Conc. 0.0083%): 43.09%
Activity Level (percentage of activity relative to 100% with 50 mM potassium nitrate) ([2]; Sample Conc. 0.0167%): 84.83%
Activity Level (percentage of activity relative to 100% with 50 mM potassium nitrate) ([2]; Sample Conc. 0.0330%): 109.75%
Molecule: CCCCC(CC)COP(=O)(O)OCC(CC)CCCC (centres unmarked) [Bis (2-ethyl hexyl) Phosphate]
activity on TREK-1 compared with potassium nitrate ([2]; 0.033% Sample concentration vs 50 mM (0.505%) potassium nitrate): higher activity on TREK-1 than potassium nitrate

activation at 50 µM [2, 3]: 16.5%
activation at 100 µM [2, 4]: 27.1%
activation at 200 µM [2, 5]: 52.1%
Molecule: CC(C)C=C(C=O)c1ccccc1 [4-Methyl-2-phenyl-2 Pentenal]

Molecule: CCCCCCCCOC(=O)CCCCC(=O)OCCCCCCCC [Dioctyl Adipate]
activity on TREK-1 compared with potassium nitrate [2]: higher activity on TREK-1 than potassium nitrate
activation at 0.0005 % [2, 6]: 8.93%
activation at 0.001 % [2, 6]: 13.7%
activation at 0.0021 % [2, 6]: 18.1%
activation at 0.0042 % [2, 6]: 22.9%
activation at 0.0083 % [2, 6]: 38.9%
activation at 0.0167 % [2, 6]: > 70%
activation at 0.033 % [2, 6]: 132%

activation at 50 µM [2, 7]: 5.19%
activation at 100 µM [2, 7]: 10.5%
activation at 200 µM [2, 7]: 29.1%
Molecule: CC=Cc1ccc(OC)c(OC)c1 [1,2-Dimethoxy 4-propenyl benzene]

percentage of TREK-1 activity relative to potassium nitrate ([2]; Sample Concentration 0.0005%): 4.57%
percentage of TREK-1 activity relative to potassium nitrate ([2]; Sample Concentration 0.0010%): 4.82%
percentage of TREK-1 activity relative to potassium nitrate ([2]; Sample Concentration 0.0021%): 3.86%
percentage of TREK-1 activity relative to potassium nitrate ([2]; Sample Concentration 0.0042%): 4.09%
percentage of TREK-1 activity relative to potassium nitrate ([2]; Sample Concentration 0.0083%): 6.73%
percentage of TREK-1 activity relative to potassium nitrate ([2]; Sample Concentration 0.0167%): 31.4%
percentage of TREK-1 activity relative to potassium nitrate ([2]; Sample Concentration […]): 65.22%
Molecule: Cc1ccc(C(C)C)c(O)c1 [Thymol]

percentage of TREK-1 activity relative to potassium nitrate ([2]; Sample Concentration 0.0005%): 1.85%
percentage of TREK-1 activity relative to potassium nitrate ([2]; Sample Concentration 0.0010%): 0.97%
percentage of TREK-1 activity relative to potassium nitrate ([2]; Sample Concentration 0.0021%): 2.7%
percentage of TREK-1 activity relative to potassium nitrate ([2]; Sample Concentration 0.0042%): 2.03%
percentage of TREK-1 activity relative to potassium nitrate ([2]; Sample Concentration 0.0083%): 9.51%
percentage of TREK-1 activity relative to potassium nitrate ([2]; Sample Concentration 0.0167%): 24.1%
percentage of TREK-1 activity relative to potassium nitrate ([2]; Sample Concentration […]): 98.65%
Molecule: L-Carvone

activation at 0.0005 % [2, 8]: 2.69%
activation at 0.001 % [2, 9]: 0.48%
activation at 0.0021 % [2, 10]: 3.06%
activation at 0.0042 % [2, 11]: 2.5%
activation at 0.0083 % [2, 12]: 5.89%
activation at 0.0167 % [2, 13]: 14.1%
activation at 0.033 % [2, 14]: 24%
Molecule: CCCCOC(=O)CC(CC(=O)OCCCC)(OC(C)=O)C(=O)OCCCC [Acetyl Tributyl Citrate]

Fluorescence per Sample concentration (percent activity relative to potassium nitrate) [2, 15]: 3.21%
Fluorescence per Sample concentration (percent activity relative to potassium nitrate) [2, 16]: 3.54%
Fluorescence per Sample concentration (percent activity relative to potassium nitrate) [2, 17]: 9.82%
Fluorescence per Sample concentration (percent activity relative to potassium nitrate) ([2]; sample concentration 400 μM, relative to 50 mM potassium nitrate): 15.89%
Molecule: CCCCCCCCCCC1CCC(=O)O1 (centres unmarked) [gamma-Tetradecalactone]

activation at 0.0005 % [2, 8]: 4.06%
activation at 0.001 % [2, 9]: 1.7%
activation at 0.0021 % [2, 10]: 2.98%
activation at 0.0042 % [2, 11]: 3.67%
activation at 0.0083 % [2, 12]: 6.17%
activation at 0.0167 % [2, 13]: 13.4%
activation at 0.033 % [2, 14]: 17.2%
Molecule: CCOC(=O)CC(O)(CC(=O)OCC)C(=O)OCC [Triethyl Citrate]

Molecule: O=[N+]([O-])[O-].[K+] [Potassium Nitrate, reference compound]
Activity Level (percentage of activity relative to 100% with 50 mM potassium nitrate) [2]: 100%
Fluorescence per Sample concentration (percent activity relative to potassium nitrate) [2]: 100%
percentage of TREK-1 activity relative to potassium nitrate [2]: 100%

Fluorescence per Sample concentration (percent activity relative to potassium nitrate) [2, 15]: 1.77%
Fluorescence per Sample concentration (percent activity relative to potassium nitrate) [2, 16]: 3.41%
Fluorescence per Sample concentration (percent activity relative to potassium nitrate) [2, 17]: 18.74%
Molecule: CCCCCCCCC1CCC(=O)O1 (centres unmarked) [gamma-Dodecalactone]

activation at 50 µM [2, 3]: 11.1%
activation at 100 µM [2, 4]: 21.1%
activation at 200 µM [2, 5]: 46.3%
activation at 400 µM ([2]; HEK293, sample concentration 400 μM, relative to 50 mM potassium nitrate, read-out: Fluorescence per Sample concentration (percent activity relative to potassium nitrate)): ≥ 50%
Molecule: CC(C)CC=C(C=O)C(C)C [2-Isopropyl-5-methyl-2-hexenal]

activation at 0.0005 % [2, 8]: 0%
activation at 0.001 % [2, 9]: 0%
activation at 0.0021 % [2, 10]: 0%
activation at 0.0042 % [2, 11]: 0%
activation at 0.0083 % [2, 12]: 0.51%
activation at 0.0167 % [2, 13]: 2.66%
activation at 0.033 % [2, 14]: 12.2%
Molecule: CCCOC(=O)CCCCC(=O)OCCC [Dipropyl Adipate]

activation at 50 µM [2, 3]: 31%
activation at 100 µM [2, 4]: 44.6%
activation at 200 µM [2, 5]: 77.3%
Molecule: CCCCC(CC)CCC(=O)O (centres unmarked) [4-Ethyloctanoic Acid]

Molecule: Oc1ccccc1-c1ccccc1 [2-Phenylphenol]
activation at 50 µM [2, 7]: 0.35%
activation at 100 µM [2, 7]: 0.85%
activation at 200 µM [2, 7]: 12.9%
activation at 400 µM [2, 7]: ≥ 50%

Molecule: CC(C)[C@@H]1CC[C@@H](C)C[C@H]1O [L- Menthol]
cooling threshold [1]: about 800 ppb

activation at 0.0005 % [2, 8]: 1.31%
activation at 0.001 % [2, 9]: 1.38%
activation at 0.0021 % [2, 10]: 3.43%
activation at 0.0042 % [2, 11]: 3.56%
activation at 0.0083 % [2, 12]: 6.59%
activation at 0.0167 % [2, 13]: 14.8%
activation at 0.033 % [2, 14]: 30.4%
Molecule: CC(C)OC(=O)CCCCC(=O)OC(C)C [Diisopropyl Adipate]

Molecule: CC(C)[C@@H]1CC[C@@H](C)C[C@@H]1O [d-neomenthol]
cooling threshold [1]: about 25,000 ppb

percentage of TREK-1 activity relative to potassium nitrate ([2]; Sample Concentration 0.0005%): 2.35%
percentage of TREK-1 activity relative to potassium nitrate ([2]; Sample Concentration 0.0010%): 2.33%
percentage of TREK-1 activity relative to potassium nitrate ([2]; Sample Concentration 0.0021%): 2.66%
percentage of TREK-1 activity relative to potassium nitrate ([2]; Sample Concentration 0.0042%): 4.94%
percentage of TREK-1 activity relative to potassium nitrate ([2]; Sample Concentration 0.0083%): 8.31%
percentage of TREK-1 activity relative to potassium nitrate ([2]; Sample Concentration 0.0167%): 17.4%
percentage of TREK-1 activity relative to potassium nitrate ([2]; Sample Concentration […]): 29.43%
Molecule: COC(=O)c1ccccc1O [Methyl Salicylate]

activation at 50 µM [2, 3]: 24.8%
activation at 100 µM [2, 4]: 38.5%
activation at 200 µM [2, 5]: 79.9%
Molecule: CCCCCC(C)CCC(=O)O (centres unmarked) [4-Methylnonanoic acid]

Reference: patent US9884130B2, “Compositions for delivery of oral comfort sensations” (The Procter & Gamble Company, priority 2013, dated 2018)
